According to ChEMBL document CHEMBL3046147, “Synthesis and Herbicidal Activity of 1-Arylalkyl-3-pyrrolin-2-one Derivatives” (J Pestic Sci, 2000):
Activity calls are given as the source filed them. The rule behind the calls is not given here.

Columns and labels:
[1] = system: Echinochloa oryzicola; experiment: Herbicidal activity against Echinochloa oryzicola grown in water-drained pot under greenhouse condition assessed as growth inhibition at 500 g /ha measured after 27 days; type: functional, organism-based
[2] = system: Echinochloa oryzicola; experiment: Herbicidal activity against Echinochloa oryzicola grown in water-drained pot under greenhouse condition assessed as time duration of residual effect at 125 g /ha; type: functional
[3] = system: Echinochloa oryzicola; experiment: Herbicidal activity against Echinochloa oryzicola under greenhouse condition assessed as growth inhibition at 125 g /ha measured after 13 days; type: functional, organism-based
[4] = system: Echinochloa oryzicola; experiment: Herbicidal activity against Echinochloa oryzicola under greenhouse condition assessed as growth inhibition at 500 g /ha measured after 13 days; type: functional, organism-based
[5] = system: Echinochloa oryzicola; experiment: Herbicidal activity against Echinochloa oryzicola under greenhouse condition assessed as growth inhibition at 500 g /ha measured after 20 days; type: functional, organism-based
[6] = system: Echinochloa oryzicola; experiment: Herbicidal activity against Echinochloa oryzicola grown in water-drained pot under greenhouse condition assessed as growth inhibition at 125 g /ha measured after 20 days; type: functional, organism-based
[7] = system: Echinochloa oryzicola; experiment: Herbicidal activity against Echinochloa oryzicola under greenhouse condition assessed as growth inhibition at 500 g /ha measured after 42 days; type: functional, organism-based
[8] = system: Echinochloa oryzicola; experiment: Herbicidal activity against Echinochloa oryzicola grown in water-drained pot under greenhouse condition assessed as growth inhibition at 125 g /ha measured after 42 days; type: functional, organism-based
[9] = system: Echinochloa oryzicola; experiment: Herbicidal activity against Echinochloa oryzicola grown in water-drained pot under greenhouse condition assessed as growth inhibition at 125 g /ha measured after 6 days; type: functional, organism-based
[10] = system: Echinochloa oryzicola; experiment: Herbicidal activity against Echinochloa oryzicola under greenhouse condition assessed as growth inhibition at 125 g /ha measured after 6 days; type: functional, organism-based
[11] = system: Echinochloa oryzicola; experiment: Herbicidal activity against Echinochloa oryzicola grown in water-drained pot under greenhouse condition assessed as growth inhibition at 125 g /ha measured after 27 days; type: functional, organism-based
[12] = system: Echinochloa oryzicola; experiment: Herbicidal activity against Echinochloa oryzicola under greenhouse condition assessed as growth inhibition at 125 g /ha measured after 42 days; type: functional, organism-based
[13] = system: Echinochloa oryzicola; experiment: Herbicidal activity against Echinochloa oryzicola under greenhouse condition assessed as time duration of residual effect at 500 g /ha; type: functional
[14] = system: Echinochloa oryzicola; experiment: Herbicidal activity against Echinochloa oryzicola under greenhouse condition assessed as growth inhibition at 125 g /ha measured after 20 days; type: functional, organism-based
[15] = system: Echinochloa oryzicola; experiment: Herbicidal activity against Echinochloa oryzicola under greenhouse condition assessed as growth inhibition at 125 g /ha measured after 33 days; type: functional, organism-based
[16] = system: Echinochloa oryzicola; experiment: Herbicidal activity against Echinochloa oryzicola grown in water-drained pot under greenhouse condition assessed as growth inhibition at 125 g /ha measured after 33 days; type: functional, organism-based
[17] = system: Echinochloa oryzicola; experiment: Herbicidal activity against Echinochloa oryzicola under greenhouse condition assessed as time duration of residual effect at 125 g /ha; type: functional
[18] = system: Echinochloa oryzicola; experiment: Herbicidal activity against Echinochloa oryzicola grown in water-drained pot under greenhouse condition assessed as growth inhibition at 500 g /ha measured after 13 days; type: functional, organism-based
[19] = system: Echinochloa oryzicola; experiment: Herbicidal activity against Echinochloa oryzicola under greenhouse condition assessed as growth inhibition at 500 g /ha measured after 6 days; type: functional, organism-based
[20] = system: Echinochloa oryzicola; experiment: Herbicidal activity against Echinochloa oryzicola grown in water-drained pot under greenhouse condition assessed as growth inhibition at 500 g /ha measured after 33 days; type: functional, organism-based
[21] = system: Echinochloa oryzicola; experiment: Herbicidal activity against Echinochloa oryzicola grown in water-drained pot under greenhouse condition assessed as growth inhibition at 125 g /ha measured after 13 days; type: functional, organism-based
[22] = system: Echinochloa oryzicola; experiment: Herbicidal activity against Echinochloa oryzicola grown in water-drained pot under greenhouse condition assessed as growth inhibition at 500 g /ha measured after 20 days; type: functional, organism-based
[23] = system: Echinochloa oryzicola; experiment: Herbicidal activity against Echinochloa oryzicola grown in water-drained pot under greenhouse condition assessed as growth inhibition at 500 g /ha measured after 42 days; type: functional, organism-based
[24] = system: Echinochloa oryzicola; experiment: Herbicidal activity against Echinochloa oryzicola under greenhouse condition assessed as growth inhibition at 125 g /ha measured after 27 days; type: functional, organism-based
[25] = system: Echinochloa oryzicola; experiment: Herbicidal activity against Echinochloa oryzicola under greenhouse condition assessed as growth inhibition at 500 g /ha measured after 33 days; type: functional, organism-based
[26] = system: Echinochloa oryzicola; experiment: Herbicidal activity against Echinochloa oryzicola under greenhouse condition assessed as growth inhibition at 500 g /ha measured after 27 days; type: functional, organism-based
[27] = system: Echinochloa oryzicola; experiment: Herbicidal activity against Echinochloa oryzicola grown in water-drained pot under greenhouse condition assessed as time duration of residual effect at 500 g /ha; type: functional
[28] = system: Echinochloa oryzicola; experiment: Herbicidal activity against Echinochloa oryzicola grown in water-drained pot under greenhouse condition assessed as growth inhibition at 500 g /ha measured after 6 days; type: functional, organism-based
[29] = system: Echinochloa oryzicola; experiment: Pre-emergence herbicide activity against Echinochloa oryzicola under greenhouse condition measured after 14 to 20 days; type: functional
[30] = system: Schoenoplectiella juncoides; experiment: Herbicide activity against Schoenoplectiella juncoides under greenhouse condition compound treated at emergence-stage measured after 14 to 20 days; type: functional
[31] = system: Echinochloa oryzicola; experiment: Herbicide activity against Echinochloa oryzicola under greenhouse condition compound treated at 2 leaf-stage measured after 14 to 20 days; type: functional
[32] = system: Sagittaria pygmaea; experiment: Herbicide activity against Sagittaria pygmaea under greenhouse condition compound treated at 0.5 leaf-stage measured after 14 to 20 days; type: functional
[33] = system: Oryza sativa; experiment: Phytotoxicity against two-leaf stage Oryza sativa cv. Nihonbare (rice) planted 1 cm depth measured after […]; type: organism-based; conditions: in vivo
[34] = system: Oryza sativa; experiment: Phytotoxicity against two-leaf stage Oryza sativa cv. Nihonbare (rice) planted 3 cm depth measured after […]; type: organism-based; conditions: in vivo

In the case of `CCCOCCN(C(=O)CCl)c1c(CC)cccc1CC` [PRETILACHLOR], the “growth inhibition (GI)” value [1] is reported as “Active”, the Time [2] is reported as 6 days and the “growth inhibition (GI)” value [3] is reported as “Active”. The “growth inhibition (GI)” value [4] was “Active”, the “growth inhibition (GI)” value [5] was “Active” and the “growth inhibition (GI)” value [6] was “inactive”. The “growth inhibition (GI)” value [7] was “inactive”, the “growth inhibition (GI)” value [8] was “inactive” and the “growth inhibition (GI)” value [9] was “Active”. For the same molecule, the “growth inhibition (GI)” value [10] was “Active”, the “growth inhibition (GI)” value [11] was “inactive” and the “growth inhibition (GI)” value [12] was “inactive”. The Time [13] was 27 days, the “growth inhibition (GI)” value [14] was “Active” and the “growth inhibition (GI)” value [15] was “inactive”. For the same molecule, the “growth inhibition (GI)” value [16] was “inactive”, the Time [17] was 13 days and the “growth inhibition (GI)” value [18] was “Active”. The “growth inhibition (GI)” value [19] was “Active”, the “growth inhibition (GI)” value [20] was “Active” and the “growth inhibition (GI)” value [21] was “Active”. For the same molecule, the “growth inhibition (GI)” value [22] was “Active”, the “growth inhibition (GI)” value [23] was “inactive” and the “growth inhibition (GI)” value [24] was “inactive”. For the same molecule, the “growth inhibition (GI)” value [25] was “Active”, the “growth inhibition (GI)” value [26] was “Active” and the Time [27] was 16 days. The “growth inhibition (GI)” value [28] was “Active”.

`CC1=C(c2ccccc2Br)C(=O)N(C(C)(C)c2nc3ccccc3s2)C1` was tested, and the MED [29] was 2.5 g/acre, the MED [30] was 20 g/acre and the MED [31] was <5 g/acre. The MED [32] was 40 g/acre, the MTD [33] was > 5 g/acre and the MTD [34] was 5 g/acre.

With `CC1=C(c2ccccc2)C(=O)N(C(C)(C)c2cccs2)C1` the MED [29] was 5 g/acre, the MED [30] was 10 g/acre and the MED [31] was <10 g/acre. It also gave an MED [32] of 20 g/acre, an MTD [33] of 10 g/acre and an MTD [34] of 20 g/acre.

In the case of `CC1=C(c2ccccc2)C(=O)N(C(C)(C)c2nc3ccc(C)cc3s2)C1`, the MED [29] is reported as 10 g/acre, the MED [30] is reported as 80 g/acre and the MED [31] is reported as <5 g/acre. The MED [32] was 20 g/acre, the MTD [33] was 5 g/acre and the MTD [34] was 20 g/acre.

`CC1=C(c2ccccc2)C(=O)N(C(C)(C)c2cc3ccccc3s2)C1` showed an MED [29] of 0.313 g/acre, an MED [30] of 80 g/acre and an MED [31] of 5 g/acre. For the same molecule, the MED [32] was 160 g/acre, the MTD [33] was 10 g/acre and the MTD [34] was 20 g/acre.

For `CC1=C(c2ccccc2)C(=O)N(C(C)(C)c2nc3cc(C)ccc3s2)C1`, the MED [29] was 10 g/acre, the MED [30] was 20 g/acre and the MED [31] was <5 g/acre. It also gave an MED [32] of 10 g/acre, an MTD [33] of 2.5 g/acre and an MTD [34] of 40 g/acre.

For `COc1ccccc1C1=C(C)CN(C(C)(C)c2nc3ccccc3s2)C1=O`, the MED [29] was 5 g/acre, the MED [30] was 5 g/acre and the MED [31] was <5 g/acre. The MED [32] was 5 g/acre, the MTD [33] was > 5 g/acre and the MTD [34] was 5 g/acre.

In the case of `CC1=C(c2ccccc2)C(=O)N(C(C)(C)c2ncc(C(F)(F)F)cc2Cl)C1`, the MED [29] is reported as <5 g/acre, the MED [30] is reported as 80 g/acre and the MED [31] is reported as <5 g/acre. It also gave an MED [32] of 80 g/acre, an MTD [33] of 5 g/acre and an MTD [34] of 20 g/acre.

In the case of `CC1=C(c2ccccc2O)C(=O)N(C(C)(C)c2nc3ccccc3s2)C1`, the MED [29] is reported as 10 g/acre, the MED [30] is reported as 2.5 g/acre and the MED [31] is reported as <5 g/acre. For the same molecule, the MED [32] was 80 g/acre, the MTD [33] was 20 g/acre and the MTD [34] was 5 g/acre.

With `CC1=C(c2ccccc2F)C(=O)N(C(C)(C)c2nc3ccccc3s2)C1` the MED [29] was 0.156 g/acre, the MED [30] was 10 g/acre and the MED [31] was 2.5 g/acre. It also gave an MED [32] of 20 g/acre, an MTD [33] of 5 g/acre and an MTD [34] of 10 g/acre.

`COc1ccc2nc(C(C)(C)N3CC(C)=C(c4ccccc4)C3=O)sc2c1` was tested, and the MED [29] was 0.313 g/acre, the MED [30] was 20 g/acre and the MED [31] was 2.5 g/acre. The MED [32] was 40 g/acre, the MTD [33] was > 5 g/acre and the MTD [34] was 10 g/acre.
